# According to patent US20090075925A1, “Methods and Compositions Related to APOBEC-1 Expression” (priority 2006, published 2009):
# Several values for one entry are separate records, joined by “and”; a condition that tells them apart may be missing. Equal entries are not always repeated. Where two headings read alike, the source gives them in different places.
# How the values were obtained:
# [1] = tested on: apoB mRNA editing
# Protocol: Protein phosphatase inhibitor studies. […] The compounds' effects on apoB mRNA editing were evaluated by RT-PCR and poisoned-primer extension analysis (Sowden et al. Rna 2:274-88 (1996)). The effect of 470 nM cantharidin on ACF subcellular distribution was investigated by treating primary hepatocyte cultures for 6 hours followed by nuclear and cytoplasmic extract preparation.
# It was reasoned that if phosphorylation of ACF regulated editing activity, treatment of rat primary hepatocytes with phosphatase inhibitors might stimulate apoB mRNA editing activity. […] The experiments (n=4-6) were done over a number of months and therefore represent primary hepatocytes from several rats.
# Editing activity was quantified from primary hepatocytes incubated with 10-100-times the EC50 of the various […] (Calbiochem).
# [2] = tested on: PKA; conditions: cited from earlier work
# [3] = tested on: PKA; conditions: cited from earlier work; remark: listed apart in the source
# [4] = tested on: PKC; conditions: cited from earlier work
# [5] = tested on: ACF; assay: ACF phosphorylation in 32P-labeled rat primary hepatocytes (ACF immunoprecipitation, autoradiography); type: cell-based
# Protocol: In vivo phosphorylation of ACF. In vivo ^32P labeling was performed by intraperitoneal injection of rats with 12.5 mCi of orthophosphoric acid (10 mCi/ml ^32PO4; NEN, Boston, Mass.) buffered with 50 mM HEPES, pH 7.0 and 150 mM NaCl. After 4 hours, rats were sacrificed and hepatic cytoplasmic and nuclear extracts prepared. Primary hepatocyte cultures in 60 mm dishes were incubated in phosphate-free Minimum Essential Eagle Media (Sigma) containing 0.1 nM porcine insulin for 6 hours and subsequently in fresh media containing 10 nM insulin (equivalent to that seen in post-prandial serum) or 0.45% to 0.9% ethanol (AAPER Alcohol and Chemical Co., Shelbyville, Ky.) (Van Mater et al. (1998), Yang et al. (2000)) plus 2.0 mCi orthophosphoric acid. Cultures were labeled for 4 hours prior to extract preparation.
# To evaluate the effect of phosphatase inhibition on ACF phosphorylation, cultures were pre-incubated for 2 hours with 470 nM cantharadin in phosphate-free Waymouth's media and subsequently supplemented with 0.5 mCi ^32pO4 and incubated for an additional 4 hours. Cultures were harvested and subcellular extracts prepared.
# Immunological techniques. […] For immunoprecipitation analyses all radiolabeled extracts were adjusted to 5 mM MgCl2 and digested with 100 units of DNase I (Promega), RNase T1 (Roche, Ind.), and RNase A (Sigma) for 1 hour on ice to remove radiolabeled nucleic acid. Where applicable, extracts were incubated overnight with ACF CT antibody at 4° C. and subsequently reacted with Protein A-agarose (Oncogene Research Products, Boston, Mass.) pre-washed with 1×TBS/10 mM NaF. The immuno-absorbed material was washed 3 times with 1×TBS/10 mM NaF, 3 times with 1×TBS/1 M NaCl (Yang et al. (1997)) and lastly 3 times with 1×TBS. Immuno-absorbed material to be treated with alkaline phosphatase was washed with 50 mM Tris, pH 8.4, 1 mM MgCl2, 0.1 mM ZnCl2, 25% glycerol and then incubated with 5 U CIAP for 1 hour at 30° C. and then washed 6 times with 1×TBS. ACF-antibody complexes were eluted with 3 M sodium thiocyanate, acetone precipitated and analyzed by 10.5% SDS-PAGE followed by autoradiography and/or western blotting with ACF NT antibody. For ACF immunoprecipitation from gradient fractions an equal volume of pooled gradient fractions from sedimentation zones of interest were reacted with sub-saturating amounts of ACF CT antibody to ensure that the recovery of phospho-ACF was not simply a reflection of ACF abundance in each zone.
# To evaluate this, cytoplasmic and nuclear extracts from radiolabeled primary hepatocyte cultures were sedimented through 10%-50% glycerol gradients. […] The ACF immunoprecipitates were resolved by SDS-PAGE, transferred to nitrocellulose, autoradiographed and subjected to phosphorimager scanning to detect and quantify radiolabeled proteins prior to immunoblotting with the ACF NT antibody.
# [6] = tested on: ACF64; assay: ACF phosphorylation in 32P-labeled McArdle cells; type: cell-based, rat; conditions: 6 hour
# Protocol: Numerous kinase inhibitors were evaluated but only those acting on Protein Kinase C affected editing activity. […] Cell extracts were immunoprecipitated with the ACF C-terminal specific antibody and analyzed by PAGE and autoradiography (FIG. 23). […] However, at and above the IC50 of PKC, phosphorylation of ACF64 was inhibited by 90% and 100%.
# [7] = tested on: PKC; conditions: cited from earlier work; remark: listed apart in the source
# [8] = tested on: ACF; assay: hepatic ACF nuclear retention in lean and ob/ob mice after insulin challenge; type: in vivo, mouse; conditions: 4 h following 1.5 IU insulin/kg BW
# Protocol: The mice are insulin-resistant as evident in elevated blood glucose (180-220 mg/dl after fasting) and lack a significant response to challenge when injected with 1.5 IU of insulin/kg BW. It has been shown that apobec-1 gene expression and apoB mRNA editing is markedly stimulated by insulin (Sowden, M. P. et al. (2002); Funahashi, T. F. et al (1995); Phung, T. L. et al. Metabolism 45, 1056-1058 (1996); von Wronski, M. A. et al. Metabolism 47, 869-73 (1998)). As a further indicator of the insulin-resistant state of these animals, it is apparent that hepatic apoB mRNA editing is not stimulated compared to cogenic lean mice (FIG. 40). The results from three fed animals as lean, ob/ob and 4 h Insulin-treated ob/ob mice are shown. Editing was evaluated using the established poisoned-primer extension assay for quantifying edited apoB mRNA where % editing is calculated from PhosphorImager scans as the counts in the edited band, divided by the sum of the counts in the edited plus unedited bands X 100. The nuclear-cytoplasmic distribution of ACF was next assessed in lean and ob/ob mouse liver without or with insulin challenge (4 h following 1.5 IU insulin/kg BW). […] The fold-nuclear retention of total cellular ACF was calculated from these values and is provided at the bottom of the image.
# [9] = 10 mg/kg per day IP, 26 day period; cited from earlier work
molecule,measurement,setting,value
Nc1ncnc2c1nc(Sc1ccc(Cl)cc1)n2[C@@H]1O[C@@H]2COP(=O)(O)O[C@H]2[C@H]1O [8-cpt cAMP],"apoB mRNA editing, Mean",[1]; 2 μM,61.2%
same,"apoB mRNA editing, Mean",[1]; 20 μM,59.3%
same,"apoB mRNA editing, Mean",[1]; 200 μM,59.6%
same,EC50,[2],2000 nM
NCCNS(=O)(=O)c1cccc2c(Cl)cccc12 [A3],IC50,[3],4 µM
same,IC50,[4],47 µM
same,concentration at which ACF phosphorylation was inhibited,"[5]; 32Pi 500 μCi/ml, 6 hours",≥ 40 µM
same,effect on editing in hepatocytes,[1],stimulated
same,inhibition of ACF64 phosphorylation,[6]; above the IC50 of PKC (120 μM),100%
same,decrease of ACF phosphorylation relative to untreated cells,[6]; at the IC50 of PKA (4 μM),20%
same,inhibition of ACF64 phosphorylation,[6]; at the IC50 of PKC (40 μM),90%
CC(C)[C@H]1C(=O)N[C@H](CO)Cc2c[nH]c3cccc(c23)N1C [Indolactam V],"apoB mRNA editing, Mean",[1]; 12 μM,92.47%
same,editing activity compared to solvent treated controls (from 65%),"[1]; 12 μM, SEM 4.8, n=2",92%
same,"apoB mRNA editing, Mean",[1]; 120 μM,91.57%
same,effect on apoB mRNA editing,[1]; concentration not given,stimulated editing
same,EC50,[7],200 nM
insulin: porcine insulin (Sigma),"hepatic ACF nuclear retention, fold change",[8]; lean mice,4 fold
same,"hepatic ACF nuclear retention, fold change",[8]; ob/ob mice,0.9 fold
same,increase of phosphorylated ACF in nuclear 27S editosomes,"[5]; 10 nM insulin, 4 hours",2.5 fold and 2 fold
same,"editing in metabolic state of rat hepatocytes (model, basal ~65%)",[1],~80%
"leptin: protein product of the ob gene, 16 kDa circulating hormone",decrease in weight at the conclusion of the study,[9],~20%
